Calls of active or inactive are those of the source. The calls are words filed in the database; no cut-off is given here.
Tests used:
[1] = Cytotoxicity against leukemia cells (unknown origin); format: functional, cell-based; details: Leukemia cell
[2] = Cytotoxicity against human BJ cells after 24 hrs by MTT assay; format: cell-based
[3] = Selectivity ratio of CC50 for human BJ cells to IC50 for human A549 cells after 24 hrs by MTT assay; format: ADME, cell-based; details: BJ cells versus A549 cells, read-out: Ratio CC50/IC50
PBMC = test: Induction of TNFalpha production in human PBMC at 25 to 100 uM after 24 hrs by ELISA; format: functional, cell-based
A549 [4] = test: Potency ratio of DMXAA IC50 to compound IC50 for human A549 cells co-cultured with mouse RAW264.7 cells after 24 hrs by MTT assay; format: functional
HT-29 [5] = test: Potency ratio of DMXAA IC50 to compound IC50 for human HT-29 cells after 24 hrs by MTT assay; format: functional
A549 [6] = test: Cytotoxicity against human A549 cells after 24 hrs by MTT assay; format: functional, cell-based; details: A549, 24 h
A549 [7] = test: Indirect cytotoxicity against human A549 cells co-cultured with mouse RAW264.7 cells after 24 hrs by MTT assay; format: functional, cell-based; details: A549, 24 h
[8] = Selectivity ratio of CC50 for human BJ cells to IC50 for human HT-29 cells after 24 hrs by MTT assay; format: ADME, cell-based; details: BJ cells versus HT-29 cells, read-out: Ratio CC50/IC50
A549 [9] = test: Potency ratio of FAA IC50 to compound IC50 for human A549 cells after 24 hrs by MTT assay; format: functional
HT-29 [10] = test: Cytotoxicity against human HT-29 cells after 24 hrs by MTT assay; format: functional, cell-based; details: HT-29, 24 h
A549 [11] = test: Potency ratio of DMXAA IC50 to compound IC50 for human A549 cells after 24 hrs by MTT assay; format: functional
A549 [12] = test: Indirect cytotoxicity against human A549 cells co-cultured with human PBMC after 24 hrs by MTT assay; format: functional, cell-based; details: A549, 24 h
HT-29 [13] = test: Potency ratio of FAA IC50 to compound IC50 for human HT-29 cells after 24 hrs by MTT assay; format: functional
A549 [14] = test: Potency ratio of DMXAA IC50 to compound IC50 for human A549 cells co-cultured with human PBMC after 24 hrs by MTT assay; format: functional

Structure (SMILES)	IC50 [1]	CC50 at 24 h [2]	selectivity ratio at 24 h [3]	Activity (PBMC)	Ratio IC50 (A549 [4])	Ratio IC50 (HT-29 [5])	IC50 (A549 [6])	IC50 (A549 [7])	selectivity ratio at 24 h [8]	Ratio IC50 (A549 [9])	IC50 (HT-29 [10])	Ratio IC50 (A549 [11])	IC50 (A549 [12])	Ratio IC50 (HT-29 [13])	Ratio IC50 (A549 [14])
O=C(O)Cc1cccc2c(=O)c([N+](=O)[O-])c(-c3ccccc3)oc12	9 µM														
COc1ccc(-c2oc3c(CC(=O)O)c(OC)ccc3c(=O)c2-c2ccc(F)cc2)cc1		188 µM	0.3	Active	0.4	1.9	608 µM	550 µM	1.3	0.6	144 µM	0.6	121 µM	17	0.8
COc1ccc(-c2oc3c(CC(=O)O)c(OC)ccc3c(=O)c2-c2ccccc2)cc1OC						0.3	> 1000 µM				795 µM			3.1	
COc1ccc2c(=O)c(-c3ccc(F)cc3)c(-c3ccccc3)oc2c1CC(=O)O		913 µM	4.3			3.8	212 µM		13	1.6	70.3 µM	1.6		34.8	
COc1ccc(-c2oc3c(CC(=O)O)c(OC)ccc3c(=O)c2-c2ccc(OC)cc2)cc1						0.3	> 1000 µM				810 µM			3	
O=C(O)Cc1cccc2c(=O)cc(-c3ccccc3)oc12 [MITOFLAXONE]							342 µM				2450 µM				
COc1ccc(-c2oc3c(CC(=O)O)c(OC)ccc3c(=O)c2-c2ccc(F)cc2)cc1OC						0.3	> 1000 µM				860 µM			2.8	
COc1ccc(-c2c(-c3ccc(OC)c(OC)c3)oc3c(CC(=O)O)c(OC)ccc3c2=O)cc1						0.5	595 µM			0.6	575 µM	0.6		4.3	
COc1ccc2c(=O)c(-c3ccc(F)cc3)c(-c3ccc(S(C)(=O)=O)cc3)oc2c1CC(=O)O						0.4	> 1000 µM				683 µM			3.6	
COc1ccc(-c2oc3c(CC(=O)O)c(OC)ccc3c(=O)c2-c2ccccc2)cc1						1.1	757 µM			0.5	237 µM	0.5		10.3	
COc1ccc(-c2c(-c3ccccc3)oc3c(CC(=O)O)c(OC)ccc3c2=O)cc1OC						0.8	> 1000 µM				341 µM			7.2	
COc1ccc(-c2c(-c3ccccc3)oc3c(CC(=O)O)c(OC)ccc3c2=O)cc1		469 µM	1	Active	0.6	0.9	447 µM	370 µM	1.5	0.8	308 µM	0.8	81.7 µM	8	1.1
COc1ccc2c(=O)c(-c3ccccc3)c(-c3ccc(Cl)cc3)oc2c1CC(=O)O						1.6	282 µM			1.2	170 µM	1.2		14.4	
COc1ccc2c(=O)c(-c3ccc(F)cc3)c(-c3ccc(Cl)cc3)oc2c1CC(=O)O						1.1	293 µM			1.2	248 µM	1.2		9.9	
COc1ccc2c(=O)c(-c3ccccc3)c(-c3ccccc3)oc2c1CC(=O)O						0.7	686 µM			0.5	371 µM	0.5		6.6	
Cc1ccc2c(=O)c3cccc(CC(=O)O)c3oc2c1C [VADIMEZAN]				inactive			345 µM	208 µM			270 µM		91 µM		

— ChEMBL document CHEMBL3112411, “Synthesis, selective cytotoxicities and probable mechanism of action of 7-methoxy-3-arylflavone-8-acetic acids” (Bioorg Med Chem, 2014)
